Laboratory results as given in patent US10383841B2, “Antimicrobial and antiinflammatory composition” (Denovastella AB, priority 2005, dated 2019).

Legend:
Assay type in all cases: cell-based
[1] = system: M. globosa CBS7966; assay: Agar dilution method, MIC
Procedure: (§1) The five strains of Malassezia were CBS7019 M. Furfur, CBS 1871 M. Pachydermatis, CBS7956 M. Slooffiae, CBS7966 M. Globosa and 42132 M. Sympodialis. The Staphylococcus aureus strain and Candida albicans H29 strain (grown on mycobiotic plates). Malassezias were cultured on PO plates and kept in room temperature. Candida albicans were grown on mycobiotic plates at room temperature. Preceding the first experiment the yeasts were reinoculated and stored for five days in a 32° C. thermostat. Afterwards they were continually reinoculated every week to ensure viable strains. S. aureus were refrigerated and reinoculated on a horse blood plate and incubated for one day in 37° C. before being included in any study.
(§2) DST-TG-agar (diagnostic sensitivity test agar) with a glycerol monostearate and tween content to meet the growth requirements of the Malassezias was used. […] The agar was obtained from the Microbiological Laboratories, Sahlgrenska, Gothenburg, Sweden. When received the agar was in a liquid form requiring storage at 55° C.
(§3) The oil extract from example 1 were diluted in DMF (dimethyl formamide) producing a stock solution with 20% extract and 80% DMF. A secondary stock solution was made by diluting a decided volume of the first stem solution in PBS. Finally the solutions were mixed with the soluble agar to obtain concentrations of the extract of 1, 0.5, 0.25, 0.125, 0.0625, 0.05, 0.025 and 0.0125% in the agar. Since the ethanol extract readily dissolved with the agar no emulsifier was needed. The ethanol extract was diluted directly with the agar to obtain concentrations of the extraxt of 1, 0.5, 0.125, 0.1, 0.05, 0.0125, 0.01 and 0.005% in the agar. No precipitations or supernatants were observed.
(§4) Microbes were harvested and suspended into PBS and manually counted in Barker chambers to receive concentrations of 10^7 cells/ml for the Malassezias and 10^5 cells/ml for the Staphylococci and Candida. Due to poor growth of M. globosa, M. slooffiae and emulsions were modified to contain 10^8 cells/ml in the third experiment.
(§5) Using a Pasteur micropipette, plates were inoculated with 20 μl of emulsion. Plates were inoculated with either three or four microorganisms. Control plates containing only agar and plates with mirrored concentration series of DMF and ethanol were made. Additionally, all plates had paralleled controls.
(§6) Plates were incubated in 37° C. for approximately 3 days and then read.

[2] = system: M. sympodialis 42132; assay: Agar dilution method, MIC
Procedure: as §1, §2, §3, §4, §5, §6

[3] = system: M. furfur CBS7019; assay: Agar dilution method, MIC
Procedure: as §1, §2, §3, §4, §5, §6

[4] = system: Candida albicans H29; assay: Agar dilution method, MIC
Procedure: as §1, §2, §3, §4, §5, §6

[5] = system: M. pachydermatis CBS 1871; assay: Agar dilution method, MIC
Procedure: as §1, §2, §3, §4, §5, §6

[6] = system: M. slooffiae CBS7956; assay: Agar dilution method, MIC
Procedure: as §1, §2, §3, §4, §5, §6

[7] = system: Staphylococcus aureus; assay: Agar dilution method, MIC
Procedure: as §1, §2, §3, §4, §5, §6

[8] = system: all microorganisms (five Malassezia strains, Candida albicans, Staphylococcus aureus); assay: Agar dilution method, summary over all microorganisms
Procedure: as §1, §2, §3
Microbes were harvested and suspended into PBS and manually counted in Barker chambers to receive concentrations of 10^7 cells/ml for the Malassezias and 10^5 cells/ml for the Staphylococci and Candida. […]
as §6

[9] = Experiment II, agar control: poor growth
[10] = Experiment II, — = no MIC up to maximum titre of that line (Cineole 0.125%, DNS in ethanol 2.5% 0.025%)

Row | MIC [1, 9] | MIC [2, 10] | MIC [3, 10] | MIC [4, 10] | MIC [5, 10] | MIC [6, 9] | MIC [7, 10] | MIC spread ([8]; over the microorganisms) | MIC ([1]; Experiment III, 10^8 cells/ml) | MIC ([1]; Experiment III, 10^8 cells/ml, listed as 1,8-cineole) | MIC ([2]; Experiment III) | MIC ([3]; Experiment III) | MIC ([4]; Experiment III) | MIC ([5]; Experiment III) | MIC ([6]; Experiment III, 10^8 cells/ml) | MIC ([7]; Experiment III) | highest attained MIC of studied substances [8] | nearly all MICs ([8]; subsequent experiment, four times the initial value) | Structure (SMILES)
1 | 0.025% | 0.0125% | 0.0625% | 0.0625% | 0.0625% | 0.0125% | 0.125% | 0.0125-0.125% |  |  |  |  |  |  |  |  |  |  | C=CC1(C)CCC(C(C)C(=O)CC=C(C)C)O1 (stereo not drawn) [Davanone, davanone]
2 | 0.125% | 0.0625% | 0.125% | 0.125% | 0.125% | 0.125% |  |  | 1.000% | 1.0% | 0.500% | 0.500% | 0.500% | 0.500% | 0.500% | 0.500% | 0.5% | 0.5% | CC12CCC(CC1)C(C)(C)O2 [Cineole, 1,8-cineole]
